Measurements reported in patent US20080161247A1, “Synergistic composition for modulating activity of substrate analogs for NAD+, NADP+, NADH or NADPH dependent enzymes and process thereof” (priority 2006, published 2008).
Like-named read-outs stand apart in the source and are kept apart here.

How the values were obtained:
P. falciparum culture = test: Growth inhibition assay, [3H] hypoxanthine incorporation; type: cell-based, Plasmodium falciparum
Text: Culture media with or without inhibitors was changed daily. Parasites were synchronized at the ring stage with 5% D-sorbitol for all and the cultures were pooled at ring or trophozoite stage with 12-15% parasitemia. Free parasites were released from the red blood cells with 0.15% saponin.
The growth of P. falciparum was quantified by measuring the incorporation of [^3H] hypoxanthine.

PfENR [1] = target: T1, PfENR (Plasmodium falciparum, UniProt Q9BH77); type: biochemical; details: triclosan with PfENR in presence of the catechin
T1 construct: The overexpression of PfENR was carried out [22]; made in house
Description: The reaction was started by the addition of 50 nM of PfENR.
The reaction was monitored at 340 nm and the formation of (NAD^+) was plotted as a function of time using equation 3 to get the dissociation constant by non-linear regression analysis of the data.
Progress curves gave the value of kobs and the k5 or association rate constants were determined by fitting the values of kobs with experimentally determined k6 values in equation 4.
The relationship between Ki, k5, k6 and kobs is described by equation 4.
The overall inhibition constant Ki* is calculated by equation 5.

[2] = target: T2, Plasmodium falciparum enoyl-Acyl carrier protein (ACP) reductase (PfENR) (Plasmodium falciparum, UniProt Q9BH77); test: biochemical; details: for Ki: Dixon plot
T2 sequence (Q9BH77 22-432): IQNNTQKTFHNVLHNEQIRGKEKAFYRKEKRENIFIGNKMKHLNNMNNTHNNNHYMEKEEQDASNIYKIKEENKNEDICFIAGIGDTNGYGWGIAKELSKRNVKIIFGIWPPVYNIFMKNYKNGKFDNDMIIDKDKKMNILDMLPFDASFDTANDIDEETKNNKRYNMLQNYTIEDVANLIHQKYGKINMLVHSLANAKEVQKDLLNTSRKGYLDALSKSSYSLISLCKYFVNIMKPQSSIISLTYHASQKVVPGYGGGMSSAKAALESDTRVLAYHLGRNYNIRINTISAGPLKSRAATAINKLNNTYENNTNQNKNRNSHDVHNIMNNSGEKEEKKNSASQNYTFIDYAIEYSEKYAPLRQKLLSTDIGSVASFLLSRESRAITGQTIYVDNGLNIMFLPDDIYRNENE
Description: Enzyme assays and inhibition studies were performed on a UV-Vis spectrophotometer (Jasco) at 25° C. in 20 mM Tris/HCl pH 7.4 containing 150 mM NaCl [13, 14]. The standard reaction mixture of 100 μl contained 200 μM crotonoyl-CoA, 100 μM NADH and 30 nM PfENR. All the inhibitors were dissolved in DMSO. 1% V/V DMSO was used in the standard reaction mixture. The reaction proceeds by reduction of crotonoyl-CoA to butyl-CoA with the oxidation of NADH to NAD^+ which is monitored at 340 nm (□∈^M340=6220 M−1 cm−1).
IC50 values of the tea catechins and polyphenolic compounds for PfENR were determined by plotting the percent inhibition of PfENR at various concentrations of inhibitory compounds. […] The percent activity thus calculated was plotted against log of concentration of respective catechins. The data was analyzed by nonlinear regression method using sigmoidal model and IC50 values for each catechin was calculated from the sigmoidal curve.
The sigmoidal curve indicates the best fit for the data.
Ki of individual catechins with respect to NADH and crotonoyl-CoA were determined in separate experiments. […] All the data were analyzed by Dixon plot [8].
All the data of individual experiments were repeated thrice and the mean value was taken for data analysis. The Ki values were determined for each experiment from the X-intercept of the Dixon plot [8].
The data were plotted using the following Dixon equations for competitive and uncompetitive kinetics, respectively.

[3] = target: T3, human aldose reductase (ALR2) (Homo sapiens, UniProt P15121); test: Fluorescence quenching dissociation constants with aldose reductase; type: binding
T3 construct: hexa-His (cleaved yes); made in house; host or cells: E. coli BL-21(DE3)
Description: The cloning of human ALR2 gene was done as described before with slight modification. In brief, the open reading frame of the human AR2 gene (Accession GenBank/EMBL Data Bank number J05017) was amplified by the polymerase chain reaction from its cDNA and cloned into the T7 RNA polymerase-based vector pET28a(+) vector (Novagen). The positive clone was sequenced and then transformed into BL-21(DE3) cells for expression. The culture (5 L) was grown at 37° C. till OD600 of 0.8, induced by 1 mM IPTG and grown further at 37° C. for next 3 h. The cells were pelleted, sonicated and the clear supernatant was loaded to Ni-NTA resin. The purified hexa-His tagged human AR2 was subjected to thrombin cleavage and loaded […]. The His-tag cleaved AR2 was further loaded on DEAE Sephadex A-50 column (Pharmacia) and eluted with an NaCl gradient. The purity of the final enzyme preparation was checked on 12% SDS-PAGE.
Ki in all the four cased were calculated strictly using equations mentioned in Example 11.

P. berghei = test: Four day suppressive test, survival of P. berghei infected mice; type: in vivo, P. berghei in Balb/c mice; details: P. berghei infected Balb/c mice; triclosan 20 mg/kg, EGCG 30 mg/kg, 4 days
Description: Randomly bred male Balb/c mice, 6 in numbers, weighing 22-25 grams were inoculated intravenously with 10 million P. berghei parasitized red blood cells. […] Giemsa-stained blood smears for 5 days and thereafter was prepared from the infected animals to assess percentage parasitemia. The survival of the mice was monitored for the following week.

[4] = system: fatty acid synthesis in P. falciparum cultures; test: Incorporation of [14C] acetate into fatty acids in P. falciparum cultures; type: cell-based; details: Plasmodium falciparum
Description: Fatty acid synthesis in P. falciparum cultures and the effect of a 2′-dihydroxyphenyl ether indicated in formula 1 and 2 with or without flavonoid was evaluated by incorporating [14C] acetate into fatty acids [Surolia and Surolia Nature Medicine, (2001) 7, 167-173].

PfENR [5] = target: T1, PfENR; type: binding; details: 1 μM [3H]EGCG
Description: Binding studies of [^3H] […] Briefly, for gel filtration chromatography, 2 ml Sephadex G-25 column was packed and equilibrated with the reaction buffer. For each run 50 μl of the reaction mixture was loaded and 20 fractions of 100 μl were collected at 0.25 ml/min flow rate. All the fractions were spotted on Whatman 3 filter paper and dried before taking the counts. In the filter binding assay method, the reaction mixtures were directly applied on the activated Polyvinylidene difluoride (PVDF) membrane fixed in a filtration assembly. The filters were washed with 200 μl of reaction buffer and dried. Dried filters were transferred to vials containing 5 ml scintillation fluid and the radioactivity measured using a Hewlett Packard liquid scintillation counter.
To check the binding of [^3H] […] The concentration of [^3H]
[^3H] […] (FIG. 4d) Double reciprocal plot of the same data is shown in the inset.
The binding constants for the above experiments were determined from saturation plots and by Scatchard plot or double reciprocal plot using equation 2a and 2b described under evaluation section.

PfENR [6] = target: T1, PfENR; type: binding; details: equation 7
E. coli O55:B5 = test: Survival of mice post bacterial infection; type: in vivo, E. coli in BALB/c mice; details: BALB/c mice, 10^7 CFU E. coli O55:B5, D-galactosamine primed; triclosan 40 mg/kg, EGCG 50 mg/kg
Description: Agents and Chemother. 12, 3859-3866 (2003) which is detailed below:—
Third group of animals received injections of both Triclosnan and ECGC as above. Controlled group was injected PBS and/or ethanol (500 μl).
For each experiment 6 BALB/c male mice, 6-9 week of age per group were used.
Infection of animals by bacteria: The animals were injected i.p or s.c with 0.4 ml of pyrogen free saline containing 10^7 CFU of bacteria (E. coli O55:B5) and primed with D-galactosamine (300 mg/kg of body weight); (Galanos at al. (1979) Proc. Natl. Acad. Sci. USA, 76, 5939-5943).
The mice was monitored for survival on an hourly basis.

[7] = Ki in presence of TCL [nM], Ki of the catechin at 50 nM and 100 nM triclosan
[8] = Ki w.r.t. NADH [μM], competitive, NADH 50, 100, 200 μM, crotonoyl-CoA 200 μM
[9] = Ki w.r.t. crotonoyl-CoA [μM], uncompetitive, NADH 100 μM
[10] = binary complex, read-out: Ki with ALR2
[11] = Plasmodium falciparum, Erythrocyte, growth of malaria culture in red blood cells, read-out: IC50 on P. falciparum culture

Molecule	Association rate constant k5 of triclosan (PfENR [1])	IC50 [2] [nM]	Ki [2, 7] [nM]	Ki [2, 8] [nM]	Ki [2, 9] [nM]	IC50 (P. falciparum culture; [11]) [nM]	also measured
O=C(O[C@@H]1Cc2c(O)cc(O)cc2O[C@@H]1c1ccc(O)c(O)c1)c1cc(O)c(O)c(O)c1 [ECG, (−) epicatechin gallate]	6.3 ± 0.135 [10^−3]s^−1	500 ± 16	16 ± 0.45	291 ± 7.6	102 ± 4.6		IC50 (P. falciparum culture; Plasmodium falciparum, Erythrocyte, read-out: IC50 on P. falciparum culture): 4700 nM
(−) epigallocatechin gallate [EGCG]							IC50 (P. falciparum culture; growth of malaria culture in red blood cells, read-out: IC50 on P. falciparum culture): 191000 nM
O=CC(O)CO (stereo not shown) [Glyceraldehyde, glyceraldehyde]							fold decrease of Kd of glyceraldehyde by quercetin ([3]; 2 μM quercetin): more than 10 fold; Kd ([3]; Kd of glyceraldehyde in the presence of quercetin, 2 μM quercetin): 40000 nM; Ki [3, 10]: 510000 ± 54000 nM; Kd ([3]; without quercetin, read-out: Kd of glyceraldehyde with aldose reductase): 510000 nM
CCN(CC)CCCC(C)Nc1ccnc2cc(Cl)ccc12 (stereo not shown) [chloroquine, reference compound]							IC50 (P. falciparum culture; Plasmodium falciparum, read-out: IC50 for chloroquine, strain MP-14): 300 nM; IC50 (P. falciparum culture; Plasmodium falciparum, read-out: IC50 of chloroquine, strain FCK2): 18 nM
O=C(/C=C/c1ccc(O)c(O)c1)c1ccc(O)cc1O [Buteine, butein]	2.1 ± 0.108 [10^−3]s^−1	12500 ± 670	14 ± 0.57	5500 ± 100	2970 ± 77	49700	
Oc1cc(Cl)ccc1Oc1ccc(Cl)cc1Cl [Triclosan, 5-chloro-2-(2,4-dichlorophenoxy)phenol]							Mice surviving from a group of 6 on Day 6 (P. berghei): 3 ± 1; Mice surviving from a group of 6 on Day 12 (P. berghei): 1 ± 1; inhibition at 9 µM [4]: 90%; Association constant of triclosan, double reciprocal plot (PfENR [5]): 14 ± 0.77 µM⁻¹; Association constant of triclosan, saturation kinetics (PfENR [5]): 22.18 ± 1.7 µM⁻¹; k5 of triclosan in presence of EGCG from slow decrease of fluorescence (PfENR [6]): 0.0072±0.84×10^−5 s^−1; Survival Time (E. coli O55:B5): 45 ± 6 h
O=CC1CCCCC1 [1-Cyclohexylaldehyde]							Ki [3, 10]: 330000 ± 45000 nM; Ki ([3]; read-out: Ki value in the presence of quercetin, 2 μM quercetin preincubated): 14.1 ± 3.1 nM
Oc1cc(O)c2c(c1)O[C@H](c1cc(O)c(O)c(O)c1)[C@H](O)C2 [EGC, (−) epigallocatechin]	5.4 ± 0.097 [10^−3]s^−1	7000 ± 85	17.6 ± 0.67	3750 ± 54	2000 ± 78	211000	
O=c1c(O)c(-c2ccc(O)c(O)c2)oc2cc(O)cc(O)c12 [Quercetin, quercetin]	3.1 ± 0.0786 [10^−3]s^−1	2500 ± 78	22 ± 0.85	1090 ± 89	473 ± 11	20700	
